Results: ChEMBL document CHEMBL4007425, “Drug Repurposing of Histone Deacetylase Inhibitors That Alleviate Neutrophilic Inflammation in Acute Lung Injury and Idiopathic Pulmonary Fibrosis via Inhibiting Leukotriene A4 Hydrolase and Blocking LTB4 Biosynthesis” (J Med Chem, 2017)
Calls of active or inactive are those of the source. The calls are words filed in the database; no cut-off is given here.

What was measured:
Mus musculus [1] = assay: Anti-inflammatory activity in BLM-induced C57BL/6 mouse model of acute lung injury assessed as reduction in IL-1beta mRNA level in BALF compound administered intraperitoneally once daily for 7 days post BLM challenge measured on day 7 by qRT-PCR method; type: functional
[2] = molecular target: T1, Leukotriene A-4 hydrolase (Homo sapiens) (UniProt P09960)
T1 sequence (whole entry): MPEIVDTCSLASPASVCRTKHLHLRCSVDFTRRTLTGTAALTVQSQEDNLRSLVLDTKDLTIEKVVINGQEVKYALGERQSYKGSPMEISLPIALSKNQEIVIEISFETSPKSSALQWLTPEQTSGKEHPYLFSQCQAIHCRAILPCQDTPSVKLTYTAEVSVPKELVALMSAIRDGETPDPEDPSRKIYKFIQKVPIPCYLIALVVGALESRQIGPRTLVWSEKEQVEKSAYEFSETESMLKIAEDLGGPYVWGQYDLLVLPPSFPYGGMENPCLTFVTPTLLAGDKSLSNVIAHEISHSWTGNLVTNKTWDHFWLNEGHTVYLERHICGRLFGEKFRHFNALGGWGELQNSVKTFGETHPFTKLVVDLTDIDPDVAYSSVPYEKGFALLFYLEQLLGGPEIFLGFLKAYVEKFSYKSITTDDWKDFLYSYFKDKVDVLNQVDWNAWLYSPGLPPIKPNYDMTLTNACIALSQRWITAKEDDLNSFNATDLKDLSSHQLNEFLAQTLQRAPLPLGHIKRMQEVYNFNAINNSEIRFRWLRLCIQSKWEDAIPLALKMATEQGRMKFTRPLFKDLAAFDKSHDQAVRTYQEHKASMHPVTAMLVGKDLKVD
Description: Binding affinity to recombinant human LTA4H hydrolase assessed as change in melting temperature at 50 uM by SYPRO orange dye-based thermofluor assay

Mus musculus [3] = assay: Anti-inflammatory activity in BLM-induced C57BL/6 mouse model of acute lung neutrophilic inflammation assessed as reduction in number of neutrophils in BALF at 10 and 25 mg/kg, ip qd for 7 days post BLM challenge measured on day 7; type: functional, organism-based
[4] = molecular target: T2, Leukotriene A-4 hydrolase (Homo sapiens, UniProt P09960); assay: Inhibition of recombinant human LTA4H Epoxide Hydrolase expressed in Escherichia coli BL21 (DE3) pLysS preincubated for 10 mins followed by addition of LTA4 as substrate measured after 15 mins by reverse-phase HPLC analysis
T2 sequence (P09960 whole entry): T1 sequence (whole entry)

[5] = molecular target: T3, Polyunsaturated fatty acid lipoxygenase ALOX15 (Homo sapiens) (UniProt P16050); assay: Inhibition of recombinant human N-terminal His-tagged 15-LOX-1 expressed in Escherichia coli using arachidonic acid as substrate measured every 2 min intervals for 20 mins by fluorescence analysis
T3 sequence (whole entry): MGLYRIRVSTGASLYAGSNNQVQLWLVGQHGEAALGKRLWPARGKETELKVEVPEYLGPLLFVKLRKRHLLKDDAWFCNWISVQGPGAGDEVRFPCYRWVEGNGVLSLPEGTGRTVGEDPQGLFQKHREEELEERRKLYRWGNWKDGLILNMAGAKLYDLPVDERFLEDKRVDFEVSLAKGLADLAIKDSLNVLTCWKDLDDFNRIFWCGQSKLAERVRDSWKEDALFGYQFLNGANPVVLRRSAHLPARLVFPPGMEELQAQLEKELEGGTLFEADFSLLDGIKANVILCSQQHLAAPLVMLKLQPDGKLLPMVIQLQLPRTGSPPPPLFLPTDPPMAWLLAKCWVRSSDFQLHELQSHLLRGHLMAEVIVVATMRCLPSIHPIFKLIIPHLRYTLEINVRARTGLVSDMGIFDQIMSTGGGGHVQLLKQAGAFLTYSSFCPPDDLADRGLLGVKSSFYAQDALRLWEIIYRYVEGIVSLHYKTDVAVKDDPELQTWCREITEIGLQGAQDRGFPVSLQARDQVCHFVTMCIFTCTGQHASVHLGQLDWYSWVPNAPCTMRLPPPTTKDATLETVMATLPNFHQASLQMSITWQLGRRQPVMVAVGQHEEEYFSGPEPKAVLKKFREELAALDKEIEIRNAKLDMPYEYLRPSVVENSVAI

[6] = molecular target: T4, Polyunsaturated fatty acid 5-lipoxygenase (Homo sapiens) (UniProt P09917); assay: Inhibition of recombinant human N-terminal His-tagged 5-LOX expressed in Escherichia coli assessed as conversion of arachidonic acid to HpETEs measured for 300 secs by UV-visible spectrophotometric analysis
T4 sequence (whole entry): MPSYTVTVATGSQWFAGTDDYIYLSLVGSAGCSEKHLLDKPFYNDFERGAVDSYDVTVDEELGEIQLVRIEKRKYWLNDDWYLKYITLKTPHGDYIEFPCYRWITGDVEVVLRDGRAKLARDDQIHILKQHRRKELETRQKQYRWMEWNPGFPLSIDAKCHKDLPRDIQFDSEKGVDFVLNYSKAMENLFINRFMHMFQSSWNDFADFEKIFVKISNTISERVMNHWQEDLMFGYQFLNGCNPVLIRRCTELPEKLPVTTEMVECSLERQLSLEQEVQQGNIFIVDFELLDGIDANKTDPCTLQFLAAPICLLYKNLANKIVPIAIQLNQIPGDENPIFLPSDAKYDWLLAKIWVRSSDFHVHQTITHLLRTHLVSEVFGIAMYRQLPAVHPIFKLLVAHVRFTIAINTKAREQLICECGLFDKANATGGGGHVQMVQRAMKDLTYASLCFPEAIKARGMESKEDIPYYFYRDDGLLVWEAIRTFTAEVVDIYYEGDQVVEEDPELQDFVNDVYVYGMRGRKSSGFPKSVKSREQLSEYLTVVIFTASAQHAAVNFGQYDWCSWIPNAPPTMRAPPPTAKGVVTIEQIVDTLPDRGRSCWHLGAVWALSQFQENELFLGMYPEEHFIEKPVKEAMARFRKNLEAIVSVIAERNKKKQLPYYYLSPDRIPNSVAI

Mus musculus [7] = assay: Anti-inflammatory activity in LPS-induced C57BL/6 mouse model of acute lung injury assessed as reduction MPO activity at 25 mg/kg, ip pretreated for 1 hr followed LPS challenge measured after 24 hrs; type: functional, organism-based
Mus musculus [8] = assay: Anti-inflammatory activity in LPS-induced C57BL/6 mouse model of acute lung injury assessed as reduction in protein concentration in BALF at 25 mg/kg, ip pretreated for 1 hr followed LPS challenge measured after 24 hrs; type: functional, organism-based
Mus musculus [9] = assay: Anti-inflammatory activity in BLM-induced C57BL/6 mouse model of acute lung injury assessed as reduction in IL-6 mRNA level in BALF compound administered intraperitoneally once daily for 7 days post BLM challenge measured on day 7 by qRT-PCR method; type: functional

SMILES | Activity (Mus musculus [1]) | ΔTm [2] [°C] | Activity (Mus musculus [3]) | IC50 [4] [µM] | INH [5] [µM] | INH [6] [µM] | Activity (Mus musculus [7]) | Activity (Mus musculus [8]) | Activity (Mus musculus [9])
CN(C)c1ccc(C(=O)NCCCCCCC(=O)NO)cc1 | Dose-dependent effect | 2.35 | Active | 0.68 | > 50 | > 50 | Active | Active | Dose-dependent effect
O=C(CCCCCCC(=O)Nc1ccccc1)NO [VORINOSTAT] | Dose-dependent effect | 1.47 | Active | 7.65 | > 50 | > 50 | Active | Active | Dose-dependent effect
